Results published in the supplement of paper PMC10307832.

Legend:
Test in all cases: relative viability (nuclei count vs DMSO), 5 days (fraction); higher = more cells survive
BEN = test system: BEN
In short: (§1)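 Relative viability equals treated-well nuclei counts divided by vehicle-well nuclei counts. Counts came from 4× images of lung cancer cell lines grown in 1536-well plates for 5 days after pin-tool dosing on the day after seeding. Dosing used one drug alone or a fixed anchor-drug dose plus five library-drug doses (not always all listed) in √10 steps, and values are medians of duplicate plates.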

CAL-12T = test system: CAL-12T
In short: as §1

EKVX = test system: EKVX
In short: as §1

HCC-15 = test system: HCC-15
In short: as §1

HCC-366 = test system: HCC-366
In short: as §1

HCC-44 = test system: HCC-44
In short: as §1

LCLC-103H = test system: LCLC-103H
In short: as §1

LOU-NH91 = test system: LOU-NH91
In short: as §1

NCI-H1355 = test system: NCI-H1355
In short: as §1

NCI-H1395 = test system: NCI-H1395
In short: as §1

NCI-H1437 = test system: NCI-H1437
In short: as §1

NCI-H1563 = test system: NCI-H1563
In short: as §1

NCI-H1650 = test system: NCI-H1650
In short: as §1

NCI-H1651 = test system: NCI-H1651
In short: as §1

NCI-H1734 = test system: NCI-H1734
In short: as §1

NCI-H1755 = test system: NCI-H1755
In short: as §1

NCI-H1975 = test system: NCI-H1975
In short: as §1

NCI-H2023 = test system: NCI-H2023
In short: as §1

NCI-H2085 = test system: NCI-H2085
In short: as §1

NCI-H358 = test system: NCI-H358
In short: as §1

NCI-H441 = test system: NCI-H441
In short: as §1

NCI-H460 = test system: NCI-H460
In short: as §1

NCI-H838 = test system: NCI-H838
In short: as §1

Clc1ccc(Nc2nnc(Cc3ccncc3)c3ccccc23)cc1 [Vatalanib] + CS(=O)(=O)N1CCN(Cc2cc3nc(-c4cccc5[nH]ncc45)nc(N4CCOCC4)c3s2)CC1 [Pictilisib] (partner 1 µM)
relative viability (BEN; first compound 0.04 µM): 0.552
relative viability (BEN; first compound 0.1265 µM): 0.495
relative viability (BEN; first compound 0.4 µM): 0.529
relative viability (BEN; first compound 1.265 µM): 0.555
relative viability (BEN; first compound 4 µM): 0.65
relative viability (CAL-12T; first compound 0.04 µM): 0.238
relative viability (CAL-12T; first compound 0.1265 µM): 0.39
relative viability (CAL-12T; first compound 1.265 µM): 0.446
relative viability (CAL-12T; first compound 4 µM): 0.463
relative viability (EKVX; first compound 0.04 µM): 0.39
relative viability (EKVX; first compound 0.1265 µM): 0.463
relative viability (EKVX; first compound 0.4 µM): 0.391
relative viability (EKVX; first compound 1.265 µM): 0.344
relative viability (EKVX; first compound 4 µM): 0.396
relative viability (HCC-15; first compound 0.04 µM): 0.788
relative viability (HCC-15; first compound 0.1265 µM): 0.741
relative viability (HCC-15; first compound 0.4 µM): 0.799
relative viability (HCC-15; first compound 1.265 µM): 0.716
relative viability (HCC-15; first compound 4 µM): 0.786
relative viability (HCC-366; first compound 0.04 µM): 0.137
relative viability (HCC-366; first compound 0.1265 µM): 0.196
relative viability (HCC-366; first compound 0.4 µM): 0.131
relative viability (HCC-366; first compound 1.265 µM): 0.0986
relative viability (HCC-366; first compound 4 µM): 0.11
relative viability (HCC-44; first compound 0.04 µM): 0.704
relative viability (HCC-44; first compound 0.1265 µM): 0.684
relative viability (HCC-44; first compound 0.4 µM): 0.63
relative viability (HCC-44; first compound 1.265 µM): 0.644
relative viability (HCC-44; first compound 4 µM): 0.613
relative viability (LCLC-103H; first compound 0.04 µM): 0.6
relative viability (LCLC-103H; first compound 0.1265 µM): 0.606
relative viability (LCLC-103H; first compound 0.4 µM): 0.55
relative viability (LCLC-103H; first compound 1.265 µM): 0.596
relative viability (LCLC-103H; first compound 4 µM): 0.714
relative viability (LOU-NH91; first compound 0.04 µM): 0.512
relative viability (LOU-NH91; first compound 0.1265 µM): 0.541
relative viability (LOU-NH91; first compound 0.4 µM): 0.461
relative viability (LOU-NH91; first compound 1.265 µM): 0.503
relative viability (LOU-NH91; first compound 4 µM): 0.517
relative viability (NCI-H1355; first compound 0.04 µM): 0.391
relative viability (NCI-H1355; first compound 0.1265 µM): 0.441
relative viability (NCI-H1355; first compound 0.4 µM): 0.53
relative viability (NCI-H1355; first compound 1.265 µM): 0.394
relative viability (NCI-H1355; first compound 4 µM): 0.457
relative viability (NCI-H1395; first compound 0.04 µM): 0.814
relative viability (NCI-H1395; first compound 0.1265 µM): 0.55
relative viability (NCI-H1395; first compound 0.4 µM): 0.525
relative viability (NCI-H1395; first compound 1.265 µM): 0.538
relative viability (NCI-H1395; first compound 4 µM): 0.616
relative viability (NCI-H1437; first compound 0.04 µM): 0.49
relative viability (NCI-H1437; first compound 0.1265 µM): 0.456
relative viability (NCI-H1437; first compound 0.4 µM): 0.518
relative viability (NCI-H1437; first compound 1.265 µM): 0.432
relative viability (NCI-H1437; first compound 4 µM): 0.432
relative viability (NCI-H1563; first compound 0.04 µM): 0.634
relative viability (NCI-H1563; first compound 0.1265 µM): 0.677
relative viability (NCI-H1563; first compound 0.4 µM): 0.685
relative viability (NCI-H1563; first compound 1.265 µM): 0.673
relative viability (NCI-H1563; first compound 4 µM): 0.652
relative viability (NCI-H1650; first compound 0.04 µM): 0.612
relative viability (NCI-H1650; first compound 0.1265 µM): 0.556
relative viability (NCI-H1650; first compound 0.4 µM): 0.578
relative viability (NCI-H1650; first compound 1.265 µM): 0.55
relative viability (NCI-H1650; first compound 4 µM): 0.592
relative viability (NCI-H1651; first compound 0.04 µM): 0.646
relative viability (NCI-H1651; first compound 0.1265 µM): 0.276
relative viability (NCI-H1651; first compound 0.4 µM): 0.642
relative viability (NCI-H1651; first compound 1.265 µM): 0.511
relative viability (NCI-H1651; first compound 4 µM): 0.594
relative viability (NCI-H1734; first compound 0.04 µM): 0.478
relative viability (NCI-H1734; first compound 0.1265 µM): 0.471
relative viability (NCI-H1734; first compound 0.4 µM): 0.503
relative viability (NCI-H1734; first compound 1.265 µM): 0.45
relative viability (NCI-H1734; first compound 4 µM): 0.465
relative viability (NCI-H1755; first compound 0.04 µM): 0.405
relative viability (NCI-H1755; first compound 0.1265 µM): 0.395
relative viability (NCI-H1755; first compound 0.4 µM): 0.453
relative viability (NCI-H1755; first compound 1.265 µM): 0.387
relative viability (NCI-H1755; first compound 4 µM): 0.383
relative viability (NCI-H1975; first compound 0.04 µM): 0.277
relative viability (NCI-H1975; first compound 0.1265 µM): 0.322
relative viability (NCI-H1975; first compound 0.4 µM): 0.32
relative viability (NCI-H1975; first compound 1.265 µM): 0.258
relative viability (NCI-H1975; first compound 4 µM): 0.287
relative viability (NCI-H2023; first compound 0.04 µM): 0.252
relative viability (NCI-H2023; first compound 0.1265 µM): 0.255
relative viability (NCI-H2023; first compound 0.4 µM): 0.318
relative viability (NCI-H2023; first compound 1.265 µM): 0.218
relative viability (NCI-H2023; first compound 4 µM): 0.226
relative viability (NCI-H2085; first compound 0.04 µM): 0.424
relative viability (NCI-H2085; first compound 0.1265 µM): 0.524
relative viability (NCI-H2085; first compound 0.4 µM): 0.44
relative viability (NCI-H2085; first compound 1.265 µM): 0.469
relative viability (NCI-H2085; first compound 4 µM): 0.438
relative viability (NCI-H358; first compound 0.04 µM): 0.378
relative viability (NCI-H358; first compound 0.1265 µM): 0.361
relative viability (NCI-H358; first compound 0.4 µM): 0.397
relative viability (NCI-H358; first compound 1.265 µM): 0.311
relative viability (NCI-H358; first compound 4 µM): 0.353
relative viability (NCI-H441; first compound 0.04 µM): 0.561
relative viability (NCI-H441; first compound 0.1265 µM): 0.4
relative viability (NCI-H441; first compound 0.4 µM): 0.592
relative viability (NCI-H441; first compound 1.265 µM): 0.474
relative viability (NCI-H441; first compound 4 µM): 0.501
relative viability (NCI-H460; first compound 0.04 µM): 0.361
relative viability (NCI-H460; first compound 0.1265 µM): 0.356
relative viability (NCI-H460; first compound 0.4 µM): 0.378
relative viability (NCI-H460; first compound 1.265 µM): 0.352
relative viability (NCI-H460; first compound 4 µM): 0.312
relative viability (NCI-H838; first compound 0.04 µM): 0.477
relative viability (NCI-H838; first compound 0.1265 µM): 0.41
relative viability (NCI-H838; first compound 0.4 µM): 0.518
relative viability (NCI-H838; first compound 1.265 µM): 0.453
relative viability (NCI-H838; first compound 4 µM): 0.467
